Some test systems named below: UO-31 renal; A549 NSCLC; NCI-H23 lung; HOP-62 NSCLC; SNB-75 CNS; UACC-257 melanoma; M14 melanoma; MOLT-4 leukemia; SK-MEL-28 melanoma; MDA-MB-435.
What all share (assay): NCI-60 cell line screen, 48 h

The structures appear in SMILES notation.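 The compound was tested at five concentrations on cells cultured in 96-well plates, with a 48-hour exposure period. GI50 is the concentration that inhibits growth by half. TGI is the concentration that stops growth completely.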 A value given as a limit tells only on which side of the number the result lay.

In the case of `COc1ccc(C(=O)Cc2cc(OC)ccc2OC)cc1`, the TGI in the assay with UO-31 renal was greater than 100 µM; in the assay with A549 NSCLC it was greater than 100 µM; in the assay with NCI-H23 lung, greater than 100 µM; with HOP-62 NSCLC it was greater than 100 µM; in the assay with SNB-75 CNS, 60.1 µM; in the assay with UACC-257 melanoma, greater than 100 µM. For the same compound, the TGI in the assay on M14 melanoma and with MOLT-4 leukemia was greater than 100 µM throughout.

`C=C1C(=O)O[C@H]2C1[C@H](OC(=O)/C(C)=C\COC(C)=O)C[C@]1(CO1)[C@@H]1[C@H](O)[C@H]3O[C@@]3(C)[C@@H]12` (stereo partly drawn): the TGI was greater than 100 µM with UO-31 renal; greater than 100 µM in the assay on A549 NSCLC; 29.7 µM with NCI-H23 lung; greater than 100 µM in the assay on HOP-62 NSCLC; greater than 96.2 µM in the assay on SNB-75 CNS; 31.7 µM in the assay on SK-MEL-28 melanoma. In addition, the TGI with UACC-257 melanoma was 31.3 µM; in the assay on MOLT-4 leukemia it was greater than 73.3 µM.

With `COc1ccc(CNc2nc(NCc3ccc(OC)cc3)nc(NC3CCCCC3)n2)cc1`, the TGI in the assay with UO-31 renal is 96.6 µM; with MDA-MB-435, 1.94 µM; with A549 NSCLC it was 5.31 µM; in the assay with HOP-62 NSCLC it was greater than 100 µM; with SK-MEL-28 melanoma, greater than 100 µM; in the assay on UACC-257 melanoma, greater than 100 µM. For the same compound, the TGI in the assay with MOLT-4 leukemia is greater than 100 µM.

On to `COc1ccc(/C=N/Nc2[nH]c(=S)nc3[nH]ncc23)cc1`, for which the TGI was greater than 100 µM in the assay on UO-31 renal; greater than 100 µM in the assay with MDA-MB-435; greater than 100 µM in the assay with A549 NSCLC; greater than 100 µM with NCI-H23 lung; 77.9 µM in the assay on HOP-62 NSCLC; greater than 100 µM in the assay on SNB-75 CNS. Besides, the TGI with SK-MEL-28 melanoma, in the assay with UACC-257 melanoma, in the assay on M14 melanoma and with MOLT-4 leukemia was greater than 100 µM each time.

For `CN(C)CCCn1c2ccccc2c2cnccc21`, the TGI with UO-31 renal is 47.9 µM; in the assay on MDA-MB-435, greater than 100 µM; in the assay with A549 NSCLC, greater than 100 µM; in the assay with NCI-H23 lung, greater than 100 µM; with HOP-62 NSCLC, greater than 100 µM; in the assay with SNB-75 CNS, greater than 100 µM. The TGI is greater than 100 µM with SK-MEL-28 melanoma, 39.3 µM in the assay on UACC-257 melanoma, 33 µM in the assay with M14 melanoma and 83.9 µM with MOLT-4 leukemia.

As for `Cc1cc(NS(=O)(=O)c2ccc(Nc3c4ccccc4nc4c(C(=O)NCCN(C)C)ccc(Cl)c34)cc2)no1`, the TGI in the assay on UO-31 renal stood at 7.84 µM; in the assay with A549 NSCLC it was 17.3 µM; in the assay on NCI-H23 lung, 16.1 µM; in the assay with HOP-62 NSCLC it was 17.3 µM; in the assay with SNB-75 CNS, 11.9 µM; in the assay on SK-MEL-28 melanoma, 16.1 µM. Further, the results for the TGI with M14 melanoma and in the assay on MOLT-4 leukemia were 17.6 µM and 1.74 µM, respectively.

Regarding `Cc1ncc([N+](=O)[O-])n1CCN=[N+]=[N-]`, the TGI with UO-31 renal, with MDA-MB-435, in the assay with A549 NSCLC, with NCI-H23 lung, in the assay on HOP-62 NSCLC and in the assay with SNB-75 CNS was greater than 100 µM throughout. Also, the TGI with SK-MEL-28 melanoma, in the assay with UACC-257 melanoma and in the assay on M14 melanoma was greater than 100 µM in each case.

`CCOC(=O)c1c2c(n(C)c1-c1ccccc1)C(=O)C(C)=CC2=O`: the TGI was 26.6 µM with UO-31 renal; 3.68 µM in the assay with MDA-MB-435; 32.9 µM in the assay on A549 NSCLC; 29.7 µM in the assay on NCI-H23 lung; 33.6 µM in the assay on HOP-62 NSCLC; 28.8 µM in the assay on SNB-75 CNS. Further, the TGI with SK-MEL-28 melanoma was 27.8 µM; with UACC-257 melanoma, 7.03 µM; with M14 melanoma it was 13.5 µM; with MOLT-4 leukemia, 9.96 µM.

As to `O=S1(=O)NNC(=NCc2ccc(F)cc2)c2ccccc21`, the TGI in the assay with UO-31 renal, with MDA-MB-435, in the assay with A549 NSCLC, with NCI-H23 lung, in the assay with HOP-62 NSCLC and in the assay on SK-MEL-28 melanoma was greater than 100 µM throughout. For the same compound, the TGI is greater than 100 µM in the assay with UACC-257 melanoma, greater than 100 µM in the assay with M14 melanoma and greater than 70.8 µM in the assay on MOLT-4 leukemia.

As for `COc1cn2c(cc1=O)COc1ccc(-c3ccccc3)cc1-2`, the TGI is greater than 100 µM with UO-31 renal; greater than 100 µM with MDA-MB-435; 99.5 µM with A549 NSCLC; greater than 100 µM with NCI-H23 lung; greater than 100 µM with HOP-62 NSCLC; greater than 100 µM with SNB-75 CNS. Also, the TGI with SK-MEL-28 melanoma is greater than 100 µM; in the assay with UACC-257 melanoma, greater than 87.1 µM; in the assay with M14 melanoma, greater than 100 µM; in the assay on MOLT-4 leukemia, greater than 100 µM.

Regarding `CC(C)(C)OC(=O)NC(Cc1ccccc1)C(=O)N[C@H]1c2ccsc2/C(=N/O)[C@H]1O` (stereo partly drawn), the TGI in the assay on UO-31 renal, with MDA-MB-435, in the assay on A549 NSCLC, in the assay with NCI-H23 lung, in the assay with HOP-62 NSCLC and in the assay on UACC-257 melanoma was greater than 100 µM each time. The TGI in the assay on M14 melanoma and in the assay with MOLT-4 leukemia was greater than 100 µM each time.

Consider `COc1cc(S(=O)(=O)Nc2nc(-c3ccc(N4C(=O)/C(=C/c5ccccc5)N=C4c4ccccc4)cc3)cs2)ccc1Cl`, for which the TGI is greater than 100 µM in the assay on UO-31 renal; greater than 100 µM in the assay on MDA-MB-435; greater than 100 µM in the assay with A549 NSCLC; 80.4 µM in the assay on NCI-H23 lung; greater than 100 µM with HOP-62 NSCLC; greater than 100 µM in the assay on SNB-75 CNS. The TGI in the assay on SK-MEL-28 melanoma, with UACC-257 melanoma, in the assay with M14 melanoma and in the assay with MOLT-4 leukemia was greater than 100 µM each time.

Consider `CC(C)=CCN(N=O)c1ncnc2nc[nH]c12`, for which the TGI in the assay with UO-31 renal, in the assay with MDA-MB-435, with A549 NSCLC, in the assay on NCI-H23 lung, in the assay with HOP-62 NSCLC and in the assay on SNB-75 CNS was greater than 100 µM in each case. Also, the TGI in the assay with SK-MEL-28 melanoma, with UACC-257 melanoma, in the assay on M14 melanoma and with MOLT-4 leukemia was greater than 100 µM in each case.

On to `CCCCc1ccc2[n+](c1)C(C(=O)OCC)=PC2` (stereo not drawn), for which the TGI with MDA-MB-435, in the assay on A549 NSCLC, in the assay on NCI-H23 lung, with HOP-62 NSCLC, in the assay with SNB-75 CNS and in the assay with SK-MEL-28 melanoma was greater than 100 µM throughout. Besides, the TGI in the assay with UACC-257 melanoma, in the assay with M14 melanoma and in the assay with MOLT-4 leukemia was greater than 100 µM each time.

With `O=C1c2ccccc2-c2ccc(NC(=O)C3CCCCC3C(=O)O)cc21` (stereo not drawn), the TGI in the assay on UO-31 renal, with MDA-MB-435, in the assay with A549 NSCLC, in the assay on NCI-H23 lung, in the assay on HOP-62 NSCLC and in the assay on SNB-75 CNS was greater than 100 µM in each case. Moreover, the TGI in the assay with SK-MEL-28 melanoma, with UACC-257 melanoma, with M14 melanoma and with MOLT-4 leukemia was greater than 100 µM throughout.

Consider `COc1cc(C2C(Cl)C(=O)N2c2ccc(Br)cc2)cc(I)c1O` (stereo not drawn), for which the TGI with UO-31 renal, in the assay with MDA-MB-435, in the assay on A549 NSCLC, in the assay on NCI-H23 lung, in the assay on HOP-62 NSCLC and in the assay on SNB-75 CNS was greater than 100 µM throughout. The TGI in the assay on UACC-257 melanoma, in the assay on M14 melanoma and in the assay on MOLT-4 leukemia was greater than 100 µM throughout.

Take `COc1cc(N=Nc2cccc(S(=O)(=O)O)c2)c(C)cc1N=Nc1ccc(/C=C/c2ccc(N=[N+]([O-])c3ccc(/C=C/c4ccc(N=Nc5cc(C)c(N=Nc6cccc(S(=O)(=O)O)c6)cc5OC)cc4)c(S(=O)(=O)O)c3)cc2S(=O)(=O)O)cc1`: the TGI in the assay on UO-31 renal, with A549 NSCLC, with NCI-H23 lung, in the assay on HOP-62 NSCLC, in the assay with SNB-75 CNS and in the assay on SK-MEL-28 melanoma was greater than 100 µM each time. Also, the TGI in the assay on UACC-257 melanoma and in the assay on MOLT-4 leukemia was greater than 100 µM throughout.

`COc1ccccc1C1C(C#N)=C(N)OC2=C1C(=O)CCC2` (stereo not drawn): the GI50 in the assay with UO-31 renal, in the assay with MDA-MB-435, with A549 NSCLC, in the assay on NCI-H23 lung, with HOP-62 NSCLC and with SNB-75 CNS was greater than 100 µM each time. The GI50 in the assay on SK-MEL-28 melanoma, in the assay with UACC-257 melanoma, with M14 melanoma and with MOLT-4 leukemia was greater than 100 µM each time. For the same compound, the TGI in the assay on UO-31 renal, with MDA-MB-435, with A549 NSCLC, in the assay on NCI-H23 lung, in the assay with HOP-62 NSCLC and in the assay on SNB-75 CNS was greater than 100 µM in each case. Also, the TGI in the assay with SK-MEL-28 melanoma, in the assay with UACC-257 melanoma, in the assay with M14 melanoma and in the assay with MOLT-4 leukemia was greater than 100 µM in each case.

For the origin of these results see PubChem BioAssay (NCI).
